Assay results from US12338256B2, “Aza-tetracyclic oxazepine compounds and uses thereof” (Genentech, Inc., priority 2022, dated 2025).

Columns and labels:
[1] = tested on: HPAC (homozygous mutant KRAS G12D human pancreatic cell line); assay: KRAS 3D-Cell Proliferation Assay, HPAC (Example 503); type: cell-based; details: Homo sapiens, HPAC, 168 h, HPAC 3D culture, 7 days, CellTiter-Glo 3D; read-out: Prolif HPAC 3D ATP IC50
How it was run: (§1)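 KRAS G12D homozygous pancreatic lines and KRAS wild-type lung lines grown as 3D cultures in ultra-low-attachment wells in RPMI-1640/10% FBS, dosed after overnight with compound dilution series (0.3% DMSO final) for 7 days at 37 °C. ATP read by CellTiter-Glo 3D luminescence; IC50 from 4-parameter Hill fit, normalized to DMSO and 1 μM staurosporine.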

[2] = tested on: H1975 (KRAS wild type human lung adenocarcinoma cell line); assay: KRAS 3D-Cell Proliferation Assay, H1975 (Example 503); type: cell-based; details: Homo sapiens, NCI-H1975, 168 h, H1975 3D culture, 7 days, CellTiter-Glo 3D; read-out: Prolif H1975 3D ATP IC50
How it was run: as §1

Structure (SMILES) | IC50 [1] | IC50 [2]
Cc1nc(N)cc(-c2nc3c4c(nc(OCC5(CN6CCC(C(F)F)C6)CC5)nc4c2F)N2C[C@H]4CC[C@H](N4)[C@H]2[C@H](C)O3)c1C(F)(F)F (stereo partly drawn) [Compound 276, 4-((5S,5aS,6S,9R)-12-((1-((3-(difluoromethyl)pyrrolidin-1-yl)methyl)cyclopropyl)methoxy)-1-fluoro-5-methyl-5a,6,7,8,9,10-hexahydro-5H-4-oxa-3,10a,11,13,14-pentaaza-6,9-methanonaphtho[1,8-ab]heptalen-2-yl)-6-methyl-5-(trifluoromethyl)pyridin-2-amine] | 1.82 nM | 1620 nM
Cc1c(F)c(N)cc(-c2nc3c4c(nc(OCCCN5C[C@@H]6C[C@H]5CO6)nc4c2F)N2C[C@H]4CC[C@H](N4)[C@H]2[C@H](C)O3)c1C(F)(F)F [Compound 164, 5-((5S,5aS,6S,9R)-12-(3-((1S,4S)-2-oxa-5-azabicyclo[2.2.1]heptan-5-yl)propoxy)-1-fluoro-5-methyl-5a,6,7,8,9,10-hexahydro-5H-4-oxa-3,10a,11,13,14-pentaaza-6,9-methanonaphtho[1,8-ab]heptalen-2-yl)-2-fluoro-3-methyl-4-(trifluoromethyl)aniline] | 43.8 nM | 7110 nM
Cc1c(F)c(N)cc(-c2nc3c4c(nc(OC[C@@H]5CC[C@H]6C[C@@H](F)CN56)nc4c2F)N2C[C@H]4CC[C@H](N4)[C@H]2[C@H](C)O3)c1C(F)(F)F (single isomer, unassigned) [152 (isomer 1)] | 17.4 nM | 787 nM
C[C@@H]1Oc2nc(-c3cccc4sc(N)nc34)c(F)c3nc(OC[C@@]45CCCN4C[C@H](F)C5)nc(c23)N2C[C@H]3CC[C@H](N3)[C@@H]12 [Compound 116, 4-((5S,5aS,6S,9R)-1-fluoro-12-(((2R,7aS)-2-fluorotetrahydro-1H-pyrrolizin-7a(5H)-yl)methoxy)-5-methyl-5a,6,7,8,9,10-hexahydro-5H-4-oxa-3,10a,11,13,14-pentaaza-6,9-methanonaphtho[1,8-ab]heptalen-2-yl)benzo[d]thiazol-2-amine] | 513 nM | 20000 nM
Cc1c(F)c(N)cc(-c2nc3c4c(nc(OC[C@@H]5CCC6C=C(F)CCN65)nc4c2F)N2C[C@H]4CC[C@H](N4)[C@H]2[C@H](C)O3)c1C(F)(F)F (stereo partly drawn) [Compound 120, 2-fluoro-5-((5S,5aS,6S,9R)-1-fluoro-12-(((3S)-7-fluoro-1,2,3,5,6,8a-hexahydroindolizin-3-yl)methoxy)-5-methyl-5a,6,7,8,9,10-hexahydro-5H-4-oxa-3,10a,11,13,14-pentaaza-6,9-methanonaphtho[1,8-ab]heptalen-2-yl)-3-methyl-4-(trifluoromethyl)aniline] | 10.6 nM | 1530 nM
C[C@@H]1Oc2nc(-c3cc(N)cnc3C(F)(F)F)c(F)c3nc(OC[C@@]45CCCN4C[C@H](F)C5)nc(c23)N2C[C@H]3CC[C@H](N3)[C@@H]12 [Compound 178, 5-((5S,5aS,6S,9R)-1-Fluoro-12-(((2R,7aS)-2-fluorotetrahydro-1H-pyrrolizin-7a(5H)-yl)methoxy)-5-methyl-5a,6,7,8,9,10-hexahydro-5H-4-oxa-3,10a,11,13,14-pentaaza-6,9-methanonaphtho[1,8-ab]heptalene-2-yl)-6-(trifluoromethyl)pyridin-3-amine] | 133 nM | 9280 nM
C[C@@H]1Oc2nc(-c3cc(O)cc4ccc(F)c(F)c34)c(F)c3nc(OC[C@@]45CCCN4C[C@H](F)C5)nc(c23)N2C[C@H]3CC[C@H](N3)[C@@H]12 [Compound 82, 5,6-Difluoro-4-((5S,5aS,6S,9R)-1-fluoro-12-(((2R,7aS)-2-fluorotetrahydro-1H-pyrrolizin-7a(5H)-yl)methoxy)-5-methyl-5a,6,7,8,9,10-hexahydro-5H-4-oxa-3,10a,11,13,14-pentaaza-6,9-methanonaphtho[1,8-ab]heptalen-2-yl)naphthalen-2-ol] | 20000 nM | 20000 nM
Cc1c(F)c(N)c(F)c(-c2nc3c4c(nc(OC[C@@]56CCCN5C[C@H](F)C6)nc4c2F)N2C[C@H]4CC[C@H](N4)[C@H]2[C@H](C)O3)c1I [Compound 204, 2,6-Difluoro-3-((5S,5aS,6S,9R)-1-fluoro-12-(((2R,7aS)-2-fluorotetrahydro-1H-pyrrolizin-7a(5H)-yl)methoxy)-5-methyl-5a,6,7,8,9,10-hexahydro-5H-4-oxa-3,10a,11,13,14-pentaaza-6,9-methanonaphtho[1,8-ab]heptalen-2-yl)-4-iodo-5-methylaniline] | 18.9 nM | 1420 nM
C[C@@H]1Oc2nc(-c3cc(N)ccc3C(C)(C)C)c(F)c3nc(OC[C@@]45CCCN4C[C@H](F)C5)nc(c23)N2C[C@H]3CC[C@H](N3)[C@@H]12 [Compound 117, 4-(tert-butyl)-3-((5S,5aS,6S,9R)-1-fluoro-12-(((2R,7aS)-2-fluorotetrahydro-1H-pyrrolizin-7a(5H)-yl)methoxy)-5-methyl-5a,6,7,8,9,10-hexahydro-5H-4-oxa-3,10a,11,13,14-pentaaza-6,9-methanonaphtho[1,8-ab]heptalen-2-yl)aniline] | 148 nM | 4740 nM
C[C@@H]1Oc2nc(-c3cc(N)cc(C(F)(F)F)c3C(F)(F)F)c(F)c3nc(OC[C@@]45CCCN4C[C@H](F)C5)nc(c23)N2C[C@H]3CC[C@H](N3)[C@@H]12 [Compound 115, 3-((5S,5aS,6S,9R)-1-fluoro-12-(((2R,7aS)-2-fluorotetrahydro-1H-pyrrolizin-7a(5H)-yl)methoxy)-5-methyl-5a,6,7,8,9,10-hexahydro-5H-4-oxa-3,10a,11,13,14-pentaaza-6,9-methanonaphtho[1,8-ab]heptalen-2-yl)-4,5-bis(trifluoromethyl)aniline] | 15.7 nM | 2710 nM
Cc1nc(N)cc(-c2nc3c4c(nc(OCC5(CN6CC7(C6)CC7(F)F)CC5)nc4c2F)N2C[C@H]4CC[C@H](N4)[C@H]2[C@H](C)O3)c1C(F)(F)F [Compound 277, 4-((5S,5aS,6S,9R)-12-((1-((1,1-difluoro-5-azaspiro[2.3]hexan-5-yl)methyl)cyclopropyl)methoxy)-1-fluoro-5-methyl-5a,6,7,8,9,10-hexahydro-5H-4-oxa-3,10a,11,13,14-pentaaza[6,9]methanonaphtho[1,8-ab]heptalene-2-yl)-6-methyl-5-(trifluoromethyl)pyridin-2-amine] | 2.09 nM | 974 nM
COCC1(F)CCN(CC2(COc3nc4c5c(nc(-c6cc(N)nc(C)c6C(F)(F)F)c(F)c5n3)O[C@@H](C)[C@@H]3[C@@H]5CC[C@H](CN43)N5)CC2)C1 (stereo partly drawn) [Compound 270, 4-((5S,5aS,6S,9R)-1-fluoro-12-((1-((3-fluoro-3-(methoxymethyl)pyrrolidin-1-yl)methyl)cyclopropyl)methoxy)-5-methyl-5a,6,7,8,9,10-hexahydro-5H-4-oxa-3,10a,11,13,14-pentaaza-6,9-methanonaphtho[1,8-ab]heptalen-2-yl)-6-methyl-5-(trifluoromethyl)pyridin-2-amine] | 2.52 nM | 2480 nM
Cc1nc(N)cc(-c2nc3c4c(nc(OCC5(CN6CCC(F)(F)C6)CC5)nc4c2F)N2C[C@H]4CC[C@H](N4)[C@H]2[C@H](C)O3)c1C(F)(F)F [Compound 288, 4-((5S,5aS,6S,9R)-12-((1-((3,3-difluoropyrrolidin-1-yl)methyl)cyclopropyl)methoxy)-1-fluoro-5-methyl-5a,6,7,8,9,10-hexahydro-5H-4-oxa-3,10a,11,13,14-pentaaza-6,9-methanonaphtho[1,8-ab]heptalene-2-yl)-6-methyl-5-(trifluoromethyl)pyridin-2-amine] | 18.8 nM | 9810 nM
C[C@@H]1Oc2nc(-c3c(F)ccc4cc[nH]c(=O)c34)c(F)c3nc(OC[C@@]45CCCN4C[C@H](F)C5)nc(c23)N2C[C@H]3CC[C@H](N3)[C@@H]12 [Compound 196, 7-Fluoro-8-((5S,5aS,6S,9R)-1-fluoro-12-(((2R,7aS)-2-fluorotetrahydro-1H-pyrrolizin-7a(5H)-yl)methoxy)-5-methyl-5a,6,7,8,9,10-hexahydro-5H-4-oxa-3,10a,11,13,14-pentaaza-6,9-methanonaphtho[1,8-ab]heptalen-2-yl)isoquinolin-1(2H)-one] | 20000 nM | 20000 nM
Cc1c(F)c(N)cc(-c2nc3c4c(nc(OC[C@@]56CCCN5C[C@H](F)C6)nc4c2F)N2C[C@H]4CC[C@H](N4)[C@H]2[C@H](C)O3)c1S(C)(=O)=O [Compound 180, 2-Fluoro-5-((5S,5aS,6S,9R)-1-fluoro-12-(((2R,7aS)-2-fluorotetrahydro-1H-pyrrolizin-7a(5H)-yl)methoxy)-5-methyl-5a,6,7,8,9,10-hexahydro-5H-4-oxa-3,10a,11,13,14-pentaaza-6,9-methanonaphtho[1,8-ab]heptalene-2-yl)-3-methyl-4-(methylsulfonyl)aniline] | 2000 nM | 20000 nM
Cc1nc(N)cc(-c2nc3c4c(nc(OCC5(CN6CC7CC(C6)O7)CC5)nc4c2F)N2C[C@H]4CC[C@H](N4)[C@H]2[C@H](C)O3)c1C(F)(F)F [Compound 265, 4-((5S,5aS,6S,9R)-12-((1-((6-oxa-3-azabicyclo[3.1.1]heptan-3-yl)methyl)cyclopropyl)methoxy)-1-fluoro-5-methyl-5a,6,7,8,9,10-hexahydro-5H-4-oxa-3,10a,11,13,14-pentaaza-6,9-methanonaphtho[1,8-ab]heptalene-2-yl)-6-methyl-5-(trifluoromethyl)pyridin-2-amine] | 2.24 nM | 6240 nM
